# Experimental data as given in ChEMBL document CHEMBL1201862, “PubChem BioAssay data set” (2004).
#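 In this assay, cells in 96-well plates receive the compound at five concentrations for 48 hours. Endpoints are linearly interpolated between the surrounding concentrations. The concentration for 50% growth inhibition is given as GI50.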 Activity calls are given as the source filed them. Cut-off read from the data, not from the text of the source: active = GI50 up to about 1.1 µM and inactive = higher.
# Tests used:
# Test in all cases: growth of human tumour cells (NCI), 48 h
# A498 = system: A498
# ACHN = system: ACHN
# HL-60 = system: HL-60
# HOP-62 = system: HOP-62
# HT-29 = system: HT-29
# Hs-578T = system: Hs-578T
# MDA-N = system: MDA-N
# NCI-H226 = system: NCI-H226
# NCI-H460 = system: NCI-H460
# OVCAR-3 = system: OVCAR-3
# OVCAR-4 = system: OVCAR-4
# PC-3 = system: PC-3
# SK-MEL-5 = system: SK-MEL-5
# SNB-75 = system: SNB-75
# SR = system: SR
# SW-620 = system: SW-620
# T47D = system: T47D
# TK-10 = system: TK-10
# UO-31 = system: UO-31
# RXF 393 = system: RXF 393
SMILES,GI50 (A498),GI50 (ACHN),GI50 (HL-60),GI50 (HOP-62),GI50 (HT-29),GI50 (Hs-578T),GI50 (MDA-N),GI50 (NCI-H226),GI50 (NCI-H460),GI50 (OVCAR-3),GI50 (OVCAR-4),GI50 (PC-3),GI50 (SK-MEL-5),GI50 (SNB-75),GI50 (SR),GI50 (SW-620),GI50 (T47D),GI50 (TK-10),GI50 (UO-31),GI50 (RXF 393)
O=C(NC(=S)Nc1ccc(Br)cc1)c1ccc2c(c1)Sc1ccccc1S2,19.6 µM (inactive),18.2 µM (inactive),17.5 µM (inactive),16.1 µM (inactive),33.6 µM (inactive),26.5 µM (inactive),28.9 µM (inactive),23.4 µM (inactive),17.9 µM (inactive),20.3 µM (inactive),19.2 µM (inactive),47.8 µM (inactive),51.1 µM (inactive),15 µM (inactive),17.3 µM (inactive),31.6 µM (inactive),16.9 µM (inactive),16.9 µM (inactive),12.9 µM (inactive),–
CC(=O)N(CC(=O)C(=O)NNc1ccoc1)c1ccc(Cl)cc1,–,37.8 µM (inactive),–,> 100 µM (inactive),> 100 µM (inactive),> 100 µM (inactive),> 100 µM (inactive),> 100 µM (inactive),> 100 µM (inactive),> 100 µM (inactive),> 100 µM (inactive),> 100 µM (inactive),> 100 µM (inactive),> 100 µM (inactive),79.4 µM (inactive),> 100 µM (inactive),> 100 µM (inactive),> 100 µM (inactive),77.1 µM (inactive),> 100 µM (inactive)
COc1cc(/C=N/N=C2NCCN2)ccc1O,–,> 100 µM (inactive),> 100 µM (inactive),> 100 µM (inactive),> 100 µM (inactive),> 100 µM (inactive),> 100 µM (inactive),> 100 µM (inactive),> 100 µM (inactive),> 100 µM (inactive),> 100 µM (inactive),> 100 µM (inactive),> 100 µM (inactive),> 100 µM (inactive),> 100 µM (inactive),> 100 µM (inactive),> 100 µM (inactive),> 100 µM (inactive),> 100 µM (inactive),> 100 µM (inactive)
C=CC1(C)CCC2C(=CCC3C2(C)CC(O)C(O)C3(C)COC2OC(CO)C(O)C(O)C2O)C1 (stereo not given),> 100 µM (inactive),> 100 µM (inactive),57.9 µM (inactive),–,> 100 µM (inactive),> 100 µM (inactive),> 100 µM (inactive),> 100 µM (inactive),87.9 µM (inactive),–,> 100 µM (inactive),> 100 µM (inactive),> 100 µM (inactive),> 100 µM (inactive),41.4 µM (inactive),> 100 µM (inactive),> 100 µM (inactive),> 100 µM (inactive),> 100 µM (inactive),–
CN1CCc2[nH]nc(-c3n[nH]c4c3CN(C)CC4)c2C1,> 100 µM (inactive),> 100 µM (inactive),–,> 100 µM (inactive),> 100 µM (inactive),> 100 µM (inactive),> 100 µM (inactive),> 100 µM (inactive),> 100 µM (inactive),> 100 µM (inactive),> 100 µM (inactive),> 100 µM (inactive),> 100 µM (inactive),–,> 100 µM (inactive),> 100 µM (inactive),> 100 µM (inactive),> 100 µM (inactive),> 100 µM (inactive),> 100 µM (inactive)
COc1ccc(C(=O)/C=C/c2ccc(OCC#N)cc2)cc1OC,> 10 µM (inactive),30.1 µM (inactive),–,15.5 µM (inactive),22.3 µM (inactive),27.4 µM (inactive),> 10 µM (inactive),19.5 µM (inactive),27.7 µM (inactive),21.2 µM (inactive),40.7 µM (inactive),> 10 µM (inactive),18.3 µM (inactive),3.72 µM (inactive),11.8 µM (inactive),7.16 µM (inactive),5.79 µM (inactive),26.9 µM (inactive),18 µM (inactive),13.2 µM (inactive)
COC1=CC(=O)c2c(CCNC(=O)OCc3ccccc3)n[nH]c2C1=O,17.5 µM (inactive),14.2 µM (inactive),16.1 µM (inactive),22.3 µM (inactive),22.8 µM (inactive),24.2 µM (inactive),2.24 µM (inactive),–,15.3 µM (inactive),18.1 µM (inactive),–,30.4 µM (inactive),3.97 µM (inactive),–,19.1 µM (inactive),19.5 µM (inactive),2.3 µM (inactive),34 µM (inactive),14.6 µM (inactive),–
O=C1Nc2ccccc2/C1=N/N=C1NCCCCN1,> 100 µM (inactive),> 100 µM (inactive),–,> 100 µM (inactive),> 100 µM (inactive),> 100 µM (inactive),> 100 µM (inactive),> 100 µM (inactive),> 100 µM (inactive),> 100 µM (inactive),> 100 µM (inactive),> 100 µM (inactive),> 100 µM (inactive),> 100 µM (inactive),> 100 µM (inactive),> 100 µM (inactive),57.8 µM (inactive),> 100 µM (inactive),> 100 µM (inactive),–
Cc1ccnc(NS(=O)(=O)c2ccc(NC(=O)c3ccc4nc5ccccc5c(Nc5ccc(S(=O)(=O)Nc6nccc(C)n6)cc5)c4c3)cc2)n1,–,> 100 µM (inactive),94.4 µM (inactive),> 100 µM (inactive),> 100 µM (inactive),37.3 µM (inactive),62.4 µM (inactive),> 100 µM (inactive),65.3 µM (inactive),33.6 µM (inactive),52.4 µM (inactive),> 100 µM (inactive),27.7 µM (inactive),50.4 µM (inactive),21.9 µM (inactive),> 100 µM (inactive),30.8 µM (inactive),> 100 µM (inactive),> 100 µM (inactive),13.6 µM (inactive)
CC(=O)Nc1ccc(OC2=CCN(C)CC2)cc1,–,> 100 µM (inactive),> 100 µM (inactive),> 100 µM (inactive),> 100 µM (inactive),> 100 µM (inactive),> 100 µM (inactive),> 100 µM (inactive),> 100 µM (inactive),> 100 µM (inactive),> 100 µM (inactive),> 100 µM (inactive),> 100 µM (inactive),> 100 µM (inactive),> 100 µM (inactive),> 100 µM (inactive),> 100 µM (inactive),> 100 µM (inactive),> 100 µM (inactive),> 100 µM (inactive)
Cc1[nH]c2[nH]c(=S)nc(NC(N)=S)c2c1Cc1ccccc1,> 100 µM (inactive),> 100 µM (inactive),13.6 µM (inactive),47 µM (inactive),22.3 µM (inactive),18.9 µM (inactive),22.7 µM (inactive),> 100 µM (inactive),48.6 µM (inactive),28 µM (inactive),–,47 µM (inactive),13.4 µM (inactive),31.9 µM (inactive),11.5 µM (inactive),34 µM (inactive),21.8 µM (inactive),62.8 µM (inactive),22.8 µM (inactive),–
O=C1CC(NCCCNC2CC(=O)c3c(Br)sc(Br)c32)c2c(Br)sc(Br)c21 (stereo not given),–,1.8 µM (inactive),1.38 µM (inactive),2.84 µM (inactive),2.28 µM (inactive),4.58 µM (inactive),1.79 µM (inactive),3.78 µM (inactive),3.62 µM (inactive),1.82 µM (inactive),2.93 µM (inactive),1.57 µM (inactive),2.04 µM (inactive),2.48 µM (inactive),0.798 µM (active),2.31 µM (inactive),2.11 µM (inactive),2.06 µM (inactive),1.42 µM (inactive),1.69 µM (inactive)
CCN(CC)c1ccc2cc(C(=O)Nc3cccc4ccccc34)c(=N)oc2c1,–,> 100 µM (inactive),7.98 µM (inactive),> 10 µM (inactive),> 100 µM (inactive),82 µM (inactive),> 100 µM (inactive),> 100 µM (inactive),89.5 µM (inactive),–,> 100 µM (inactive),> 100 µM (inactive),43.1 µM (inactive),> 100 µM (inactive),7.96 µM (inactive),67 µM (inactive),> 100 µM (inactive),> 100 µM (inactive),> 100 µM (inactive),61 µM (inactive)
CCCCc1c(OC)cc(O)c2c1C(=O)c1[nH]c(C(=O)O)c(O)c(=O)c1C2=O,–,2.27 µM (inactive),1.56 µM (inactive),1.57 µM (inactive),> 100 µM (inactive),1.82 µM (inactive),17.2 µM (inactive),5.57 µM (inactive),46.8 µM (inactive),0.908 µM (active),18.3 µM (inactive),6.12 µM (inactive),–,3.26 µM (inactive),6.93 µM (inactive),83 µM (inactive),9.4 µM (inactive),13.9 µM (inactive),1.73 µM (inactive),1.56 µM (inactive)
COc1ccc2c(c1)CCC1=C/C(=N\NC(N)=O)CCC12C (stereo not given),–,> 10 µM (inactive),9.62 µM (inactive),> 10 µM (inactive),> 10 µM (inactive),7.1 µM (inactive),> 10 µM (inactive),–,–,> 10 µM (inactive),> 10 µM (inactive),> 10 µM (inactive),> 10 µM (inactive),> 10 µM (inactive),> 10 µM (inactive),> 10 µM (inactive),> 10 µM (inactive),> 10 µM (inactive),–,–
